# Reference: US20220023303A1 (DSM IP Assets B.V., priority 2018, published 2022)
# Tests used:
# Format in all cases: in vivo, humans
# U.S. adults [1] = assay: NHANES: normalcy of bowel motion frequency (3-21 bowel motions per week) by riboflavin intake quartiles; details: as riboflavin intake increases, food and total riboflavin, FIG. 2
# Experimental: (§1) For this analysis, data from adults aged 20 years and over in the survey years 2005-2010 were selected. Participants were selected using a complex, multi-stage probability sampling design to produce a representative sample. Demographic information (gender, age, ethnicity, education, poverty-income ratio) was provided by self-report during an interview conducted by a trained interviewer in the participant's home. Questions relating to Bowel Health were administered to adults aged 20 years and older in the mobile examination center by means of a computer-assisted personal interviewing system. […] Pregnancy status in women aged 20 to 44 years was determined by self-report; negative responses were confirmed with a urinary pregnancy test. […]
# (§2) The Bowel Health questionnaire in survey cycles 2005-2006 and 2007-2008 consisted of six questions: four relate to the assessment of the Fecal Incontinence Severity Index (Rockwood, et al 1999 Dis Colon Rectum 42, 1525-1532) one question requests participants' self-reported weekly bowel motion frequency, and one question was about normal stool type on the Bristol Stool Scale (Lewis et al 1997 Scand J Gastroenterol 32: 920-924). A Fecal Incontinence Intensity Score (FISI) was calculated and binned into four categories using the RANK procedure to obtain approximately equal categories. […]
# U.S. adults [2] = assay: NHANES: self-reported common stool type (Bristol Stool Scale) by quartiles of riboflavin intake; details: as riboflavin intake increases (quartiles), FIG. 1
# Experimental: as §1, §2
# U.S. adults [3] = assay: NHANES 2005-2010 observational analysis: linear regression of self-reported bowel motion frequency on riboflavin intake
# Experimental: Data were obtained from NHANES, a representative survey that measures the health and nutritional status of the U.S. non-institutionalized population. Research protocols were reviewed and approved by the National Center for Health Statistics Research Ethics Review Board (protocol #2005-2006). Ethical review of the protocols used in NHANES protocols is conducted annually, with ongoing changes submitted through an amendment process. All participants gave written consent before participation. Information that could potentially identify participants is removed before data is made publicly available.
# For this analysis, data from adults aged 20 years and over in the survey years 2005-2010 were selected. Participants were selected using a complex, multi-stage probability sampling design to produce a representative sample. Demographic information (gender, age, ethnicity, education, poverty-income ratio) was provided by self-report during an interview conducted by a trained interviewer in the participant's home. Questions relating to Bowel Health were administered to adults aged 20 years and older in the mobile examination center by means of a computer-assisted personal interviewing system. Dietary assessment was conducted by means of two 24-hour dietary recalls, the first conducted in-person at the mobile examination center, and the second conducted by telephone 3 to 10 days after the dietary interview but not on the same day of the week. Pregnancy status in women aged 20 to 44 years was determined by self-report; negative responses were confirmed with a urinary pregnancy test. […] For the survey cycles 2007-2010, the total supplemental intake based on the 30 days questionnaire was also used, based on the totals provided in the dataset. Subjects who self-reported inflammatory bowel disease were excluded.
# The Bowel Health questionnaire in survey cycles 2005-2006 and 2007-2008 consisted of six questions: four relate to the assessment of the Fecal Incontinence Severity Index (Rockwood, et al 1999 Dis Colon Rectum 42, 1525-1532) one question requests participants' self-reported weekly bowel motion frequency, and one question was about normal stool type on the Bristol Stool Scale (Lewis et al 1997 Scand J Gastroenterol 32: 920-924). A Fecal Incontinence Intensity Score (FISI) was calculated and binned into four categories using the RANK procedure to obtain approximately equal categories. In the 2009-2010 survey cycle, questions about bowel evacuation urgency, constipation and diarrhea incidence over the previous year, and laxative use over the past 30 days, were added.
# Statistical analyses were performed using SAS version 9.3 (SAS Institute Inc., Cary, N.C., USA). Statistical significance was set at 0.05.
# Gender, ethnicity, education, age (continuous), Poverty-Income Ratio (PIR, continuous) were included in the socio-demographic chunk, and vigorous physical activity over the past 30 days (Y/N), dietary supplement use (Y/N), fiber and moisture intake (continuous), self-report of thyroid problems (Y/N) and use of prescription medication (1 or less vs 2 or more) were included in the diet and health chunk.
# The final linear regression using significant predictors was performed using […] to generate the correct variance estimation that takes the complex survey design into account.
# U.S. adults [4] = assay: NHANES: self-reported urgency to empty the bowels by total riboflavin intake; details: highest two quartiles of riboflavin intake, FIG. 4
# Experimental: as §1, §2
# [5] = Adjusted model (demographics): gender, age, education, Poverty-Income Ratio, ethnicity
# [6] = Adjusted model (diet/health): prescription medications, thyroid problem, fiber and moisture intake
# [7] = Adjusted model (full): all variables
smiles,measurement,setting,value
Cc1cc2nc3c(=O)[nH]c(=O)nc-3n(C[C@H](O)[C@H](O)[C@H](O)CO)c2cc1C [riboflavin],Proportion of the population with normal bowel motion patterns,U.S. adults [1],increases
same,Change in stool type 4 (normal defecation),U.S. adults [2],increase
same,Change in stool types 2 (slow transit time) and 5 (soft-fluid stool),U.S. adults [2],reduction
same,"Beta-coefficient, bowel motion frequency, DS riboflavin intake",U.S. adults [3]; [5],0.0108
same,"Beta-coefficient, bowel motion frequency, Food riboflavin intake",U.S. adults [3]; [5],0.253
same,"Beta-coefficient, bowel motion frequency, Total riboflavin intake",U.S. adults [3]; [5],0.0130
same,"Beta-coefficient, bowel motion frequency, DS riboflavin intake",U.S. adults [3]; [6],0.00807
same,"Beta-coefficient, bowel motion frequency, Food riboflavin intake",U.S. adults [3]; [6],0.0465
same,"Beta-coefficient, bowel motion frequency, Total riboflavin intake",U.S. adults [3]; [6],0.00684
same,"Beta-coefficient, bowel motion frequency, DS riboflavin intake",U.S. adults [3]; [7],0.00895
same,"Beta-coefficient, bowel motion frequency, Food riboflavin intake",U.S. adults [3]; [7],0.0191
same,"Beta-coefficient, bowel motion frequency, Total riboflavin intake",U.S. adults [3]; [7],0.00974
same,"Beta-coefficient, bowel motion frequency, Food riboflavin intake",U.S. adults [3]; Crude model,0.355
same,"Beta-coefficient, bowel motion frequency, Total riboflavin intake",U.S. adults [3]; Crude model,0.0113
same,"Beta-coefficient, bowel motion frequency, DS riboflavin intake","U.S. adults [3]; Crude model, dietary supplements",0.0101
same,Riboflavin intake at which effect on bowel health parameters was seen,U.S. adults [3]; above the median intake,> 2.1 mg/day
same,Relationship between food riboflavin intake and bowel motion frequency,"U.S. adults [3]; after adjusting for socio-demographic, diet and lifestyle co-factors",not significant
same,Relationship between riboflavin intake and bowel motion frequency,"U.S. adults [3]; crude model, intakes from food, dietary supplements and in total","significant, positive relationship"
same,"Relationship between total riboflavin intake and bowel motion frequency, stratified by fiber intake","U.S. adults [3]; dietary fiber intake low, less than the median",no significant relationship
same,Change in bowel motion frequency with riboflavin,U.S. adults [3]; fibre intakes in the upper three quartiles (above 9 g/day),Increases
same,"Relationship between riboflavin intake from dietary supplements and in total, and bowel motion frequency",U.S. adults [3]; fully adjusted model,"significant, positive relationship"
same,Riboflavin intake at which effect on bowel health parameters was especially seen,U.S. adults [3]; highest quartile of riboflavin intake,> 3.1 mg/day
same,"Relationship between total riboflavin intake and bowel motion frequency, stratified by fiber intake",U.S. adults [3]; top two quartiles of dietary fiber intake,only significant
same,"Number of respondents reporting bowel motion urgency occurs ""rarely""",U.S. adults [4],significant increase
